Key:
[1] = test system: VEGF-mediated retinal vascular damage; assay: VEGF-induced retinal vascular leakage in rabbits, fundus photography and fluorescein angiography; type: in vivo, Dutch Belted rabbits; set-up: Leakage, mean score / Hemorrhage/Microaneurism, mean score / Edema, mean score: scale not given here; conditions: for Edema, mean score / Hemorrhage/Microaneurism, mean score / Leakage, mean score / Edema, Difference (Doxy-Vehicle) / (Kenalog-Vehicle) / Hemorrhage/Microaneurism, Difference (Doxy-Vehicle) / (Kenalog-Vehicle) / Leakage, Difference (Doxy-Vehicle) / (Kenalog-Vehicle) / Edema, Difference (Kenalog-Doxy) / Hemorrhage/Microaneurism, Difference (Kenalog-Doxy) / Leakage, Difference (Kenalog-Doxy): 48 hours post-dosing; for Edema, mean score / Hemorrhage/Microaneurism, mean score / Leakage, mean score: 50 μl intravitreal before VEGF165; for Edema, Difference (Doxy-Vehicle) / (Kenalog-Vehicle) / Hemorrhage/Microaneurism, Difference (Doxy-Vehicle) / (Kenalog-Vehicle) / Leakage, Difference (Doxy-Vehicle) / (Kenalog-Vehicle): difference of mean scores to vehicle; for Edema, Difference (Kenalog-Doxy) / Hemorrhage/Microaneurism, Difference (Kenalog-Doxy) / Leakage, Difference (Kenalog-Doxy): difference of mean scores to Doxy
Procedure: Retinal vascular leakage was induced in rabbits by intravitreal injection of VEGF according to the procedures set forth in Edelman et al., Experimental Eye Research 80:249-258 (2005). The protective effect of doxycycline on VEGF-mediated retinal vascular damage was assessed. A total of 12 Dutch Belted rabbits (Covance) were anesthetized with isoflurane inhalation and topical 0.5% proparacaine hydrochloride and each eye studied (24 eyes total). Four animals received a 50 μl intravitreal injection of 0.025% bovine serum albumin (BSA) in sterile phosphate-buffered saline (PBS) (Dow Pharmaceutical Sciences) (vehicle, eight eyes total). Doxycycline was formulated from anhydrous doxycycline (Dow Pharmaceutical Sciences) and reconstituted as a saturated solution of doxycycline in 0.025% BSA in PBS assayed to be at a final doxycycline concentration of approximately 0.067 weight percent. Four animals received 50 μl of the doxycycline formulation in each eye (eight eyes total). Four animals received 50 μl of a 40 mg/mL solution of triamcinolone acetonide (Kenalog®, Bristol Myers-Squibb) in 0.025% BSA in PBS (positive control, eight eyes total). Each injection was followed by a 50 μl intravitreal injection of a 10 μg/mL solution of recombinant human VEGF165 (Vascular Endothelial Growth Factor 165 amino acid residue variant, R&D Systems) in 0.025% BSA in PBS. A 30-gauge ⅝-inch needle was used for the injections. VEGF was purchased from R&D Systems (Minneapolis, Minn.).
Prior to injections, eyes were prepared for injection with 1% tropicamide (2 drops), followed ten minutes later by phenylephrine hydrochloride 2.5% (2 drops). An ophthalmic Betadine solution was then used to moisten the eyes. […]. After five minutes, the Betadine was washed out of the eyes with sterile saline and proparacaine hydrochloride was delivered to each eye.
Animals were then anesthetized with an intravenous injection of a ketamine/xylazine cocktail (77 mg/mL ketamine, 23 mg/mL xylazine) at 0.1 mL/kg.
Vascular leakage, hemorrhage, and edema were assessed using fundus photography and fluorescein angiography (see Table 1). Rabbits were anesthetized with subcutaneous 100 mg/mL ketamine at 35 mg/kg and 100 mg/mL xylazine at 7 mg/kg, eyes were dilated with topical 1% tropicamide, and angiograms were obtained with a Topeon TRC-501X retinal camera coupled to a personal computer with IMAGEnet 2000 software (Topcon Medical Systems Inc., Paramus, N.J.). Intravenous sodium fluorescein injection (12 mg/kg) was performed 48 hours after intravitreal injection of VEGF. Late-phase angiography was performed 4-6 min after intravenous sodium fluorescein injection, […]

diabetic retinopathy [2] = assay: Oral doxycycline in patients suffering from diabetic retinopathy; type: in vivo, Humans; conditions: 50 mg orally twice a day for eight weeks
Procedure: Ten patients suffering from diabetic retinopathy are treated with oral doxycycline 50 mg orally twice a day for eight weeks. The patients are monitored for improvement of macular edema and vascular leakage by fluorescein angiography and scanning ocular fluorophotometry. Decreased vascular leakage in response to doxycycline administration is observed, which leads to a decrease in edema and improved visual acuity.

diabetic retinopathy [3] = assay: Topical doxycycline in patients suffering from diabetic retinopathy; type: in vivo, Humans; conditions: between 0.025% and 0.1% daily for one month
Procedure: Ten patients suffering from diabetic retinopathy are treated with topical doxycycline. Two patients each are administered doxycycline at a concentration selected to be between 0.025% and 0.1% daily for one month. The patients are monitored for improvement of macular edema and vascular leakage by fluorescein angiography and scanning ocular fluorophotometry. Decreased vascular leakage in response to doxycycline administration is observed, which leads to a decrease in edema and improved visual acuity in most or all of the patients treated.

pre-IL-1β = pre-IL-1β cleavage by ELISA in human choroidal cultures; type: cell-based; conditions: 0.001% to 5.0% doxycycline
[4] = most or all of the patients treated

Row | SMILES | Edema, mean score ([1]; Combined Eyes) | Hemorrhage/Microaneurism, mean score ([1]; Combined Eyes) | Leakage, mean score ([1]; Combined Eyes) | Edema, Difference (Doxy-Vehicle) / (Kenalog-Vehicle) ([1]; Combined Eyes) | Hemorrhage/Microaneurism, Difference (Doxy-Vehicle) / (Kenalog-Vehicle) ([1]; Combined Eyes) | Leakage, Difference (Doxy-Vehicle) / (Kenalog-Vehicle) ([1]; Combined Eyes) | Edema, mean score ([1]; Left Eye) | Hemorrhage/Microaneurism, mean score ([1]; Left Eye) | Leakage, mean score ([1]; Left Eye) | Edema, Difference (Doxy-Vehicle) / (Kenalog-Vehicle) ([1]; Left Eye) | Hemorrhage/Microaneurism, Difference (Doxy-Vehicle) / (Kenalog-Vehicle) ([1]; Left Eye) | Leakage, Difference (Doxy-Vehicle) / (Kenalog-Vehicle) ([1]; Left Eye) | Edema, mean score ([1]; Right Eye) | Hemorrhage/Microaneurism, mean score ([1]; Right Eye) | Leakage, mean score ([1]; Right Eye) | Edema, Difference (Doxy-Vehicle) / (Kenalog-Vehicle) ([1]; Right Eye) | Hemorrhage/Microaneurism, Difference (Doxy-Vehicle) / (Kenalog-Vehicle) ([1]; Right Eye) | Leakage, Difference (Doxy-Vehicle) / (Kenalog-Vehicle) ([1]; Right Eye) | Edema ([1]; combined eyes) [units] | Hemorrhage/microaneurism ([1]; combined eyes) [units] | other results
1 | C[C@H]1c2cccc(O)c2C(O)=C2C(=O)[C@]3(O)C(O)=C(C(N)=O)C(=O)[C@@H](N(C)C)[C@@H]3[C@@H](O)[C@@H]21 [Doxy, doxycycline] | 2.00 | 1.63 | 2.06 | −0.69 | −0.94 | −0.75 | 3.25 | 2.25 | 3.13 | 0.50 | 0.00 | 0.38 | 1.75 | 2 | 1.75 | −0.25 | −0.25 | −0.50 | 2.0 | 1.63 | VEGF-mediated retinal vascular damage ([1]; as compared to the rabbits that received vehicle): reduced; Leakage ([1]; combined eyes): 2.06 units; Edema ([1]; left eye): 3.25 units; Hemorrhage/microaneurism ([1]; left eye): 2.25 units; Leakage ([1]; left eye): 3.13 units; Edema ([1]; right eye): 1.75 units; Hemorrhage/microaneurism ([1]; right eye): 2.0 units; Leakage ([1]; right eye): 1.75 units; Edema (diabetic retinopathy [2]): decrease; visual acuity (diabetic retinopathy [2]): improved; vascular leakage (diabetic retinopathy [2]; fluorescein angiography and scanning ocular fluorophotometry): Decreased; vascular leakage (diabetic retinopathy [3]): Decreased; Edema (diabetic retinopathy [3]; [4]): decrease; visual acuity (diabetic retinopathy [3]; [4]): improved; pre-IL-1β cleavage (pre-IL-1β): correlate directly with increasing doxycycline concentrations
2 | CC1(C)O[C@@H]2C[C@H]3[C@@H]4CCC5=CC(=O)C=C[C@]5(C)[C@@]4(F)[C@@H](O)C[C@]3(C)[C@]2(C(=O)CO)O1 [Kenalog, triamcinolone acetonide] | 1.13 | 1.00 | 0.25 | −1.56 | −1.56 | −2.56 | 1.25 | 1.13 | 0.50 | −1.50 | −1.13 | −2.25 | 1.13 | 0.75 | 0.25 | −0.88 | −1.50 | −2.00 | 1.13 | 1.00 | Edema, Difference (Kenalog-Doxy) ([1]; Combined Eyes): −0.88; Hemorrhage/Microaneurism, Difference (Kenalog-Doxy) ([1]; Combined Eyes): −0.63; Leakage, Difference (Kenalog-Doxy) ([1]; Combined Eyes): −1.81; Edema, Difference (Kenalog-Doxy) ([1]; Left Eye): −2.00; Hemorrhage/Microaneurism, Difference (Kenalog-Doxy) ([1]; Left Eye): −1.13; Leakage, Difference (Kenalog-Doxy) ([1]; Left Eye): −2.63; Edema, Difference (Kenalog-Doxy) ([1]; Right Eye): −0.63; Hemorrhage/Microaneurism, Difference (Kenalog-Doxy) ([1]; Right Eye): −1.25; Leakage, Difference (Kenalog-Doxy) ([1]; Right Eye): −1.50; Leakage ([1]; combined eyes): 0.25 units; Edema ([1]; left eye): 1.25 units; Hemorrhage/microaneurism ([1]; left eye): 1.13 units; Leakage ([1]; left eye): 0.50 units; Edema ([1]; right eye): 1.13 units; Hemorrhage/microaneurism ([1]; right eye): 0.75 units; Leakage ([1]; right eye): 0.25 units

Reference: US20090136514A1, “Tetracyclines for Treating Ocular Diseases and Disorders” (priority 2005, published 2009)
